Results: PubChem BioAssay AID328 (DTP/NCI, 2004)
“And” between values parts separate entries of the source, which are not always exact repeats. Identical values can stand only once. Inconclusive results and toxic doses are left out.

Tested on: BDF1 mice, P388 leukemia ip, median survival T/C
Test: NCI In Vivo Anticancer Drug Screen. Data for tumor model P388 Leukemia (intraperitoneal) in B6D2F1 (BDF1) mice
Details: endpoint: median survival time, higher = longer survival
In short: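 Survival ratio, drug arm over vehicle arm, in mice with a transplanted tumour.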

[1] = dose: 100.0 mg/kg/injection, schedule: Q04DX003 (ip), vehicle: saline with Tween-80
[2] = dose: 200.0 mg/kg/injection, schedule: Q04DX003 (ip), vehicle: saline with Tween-80
[3] = dose: 400.0 mg/kg/injection, schedule: Q04DX003 (ip), vehicle: saline with Tween-80
[4] = dose: 50.0 mg/kg/injection, schedule: Q01DX009 (ip), vehicle: saline with Tween-80
[5] = dose: 100.0 mg/kg/injection, schedule: Q01DX009 (ip), vehicle: saline with Tween-80
[6] = dose: 200.0 mg/kg/injection, schedule: Q01DX009 (ip), vehicle: saline with Tween-80
[7] = dose: 25.0 mg/kg/injection, schedule: Q04DX003 (ip), vehicle: saline
[8] = dose: 50.0 mg/kg/injection, schedule: Q04DX003 (ip), vehicle: saline
[9] = dose: 25.0 mg/kg/injection, schedule: Q01DX009 (ip), vehicle: saline
[10] = dose: 50.0 mg/kg/injection, schedule: Q04DX003 (ip), vehicle: saline sonified
[11] = dose: 100.0 mg/kg/injection, schedule: Q01DX001 (ip), vehicle: saline with Tween-80
[12] = dose: 200.0 mg/kg/injection, schedule: Q01DX001 (ip), vehicle: saline with Tween-80
[13] = dose: 6.25 mg/kg/injection, schedule: Q01DX009 (ip), vehicle: saline with Tween-80
[14] = dose: 50.0 mg/kg/injection, schedule: Q04DX003 (ip), vehicle: saline with Tween-80
[15] = dose: 400.0 mg/kg/injection, schedule: Q01DX009 (ip), vehicle: saline with Tween-80
[16] = dose: 12.5 mg/kg/injection, schedule: Q01DX009 (ip), vehicle: saline with Tween-80
[17] = dose: 25.0 mg/kg/injection, schedule: Q01DX009 (ip), vehicle: saline with Tween-80

With CC(=O)c1cc(CN(CCCl)CCCl)c(O)c(CN(CCCl)CCCl)c1O the T/C (dose: 0.05 mg/kg/injection, schedule: Q01DX009 (ip), vehicle: Klucel (hydroxypropylcellulose) (HPC)) was 100 % of control, the T/C (dose: 0.1 mg/kg/injection, schedule: Q01DX009 (ip), vehicle: Klucel (hydroxypropylcellulose) (HPC)) was 120 % of control and the T/C (dose: 0.2 mg/kg/injection, schedule: Q01DX009 (ip), vehicle: Klucel (hydroxypropylcellulose) (HPC)) was 110 % of control. For the same molecule, the T/C (dose: 0.4 mg/kg/injection, schedule: Q01DX009 (ip), vehicle: Klucel (hydroxypropylcellulose) (HPC)) was 120 % of control, the T/C (dose: 5.5 mg/kg/injection, schedule: Q01DX009 (ip), vehicle: Klucel (hydroxypropylcellulose) (HPC)) was 162 % of control and the T/C (dose: 6.25 mg/kg/injection, schedule: Q01DX009 (ip), vehicle: Klucel (hydroxypropylcellulose) (HPC)) was 118 % of control. The T/C (dose: 8.0 mg/kg/injection, schedule: Q01DX009 (ip), vehicle: Klucel (hydroxypropylcellulose) (HPC)) was 166 % of control, the T/C (dose: 8.3 mg/kg/injection, schedule: Q01DX009 (ip), vehicle: Klucel (hydroxypropylcellulose) (HPC)) was 166 % of control and the T/C (dose: 12.0 mg/kg/injection, schedule: Q01DX009 (ip), vehicle: Klucel (hydroxypropylcellulose) (HPC)) was 183 % of control. The T/C (dose: 12.5 mg/kg/injection, schedule: Q01DX009 (ip), vehicle: Klucel (hydroxypropylcellulose) (HPC)) was 183 % of control and 190 % of control, the T/C (dose: 18.0 mg/kg/injection, schedule: Q01DX009 (ip), vehicle: Klucel (hydroxypropylcellulose) (HPC)) was 250 % of control and the T/C (dose: 25.0 mg/kg/injection, schedule: Q01DX009 (ip), vehicle: Klucel (hydroxypropylcellulose) (HPC)) was 154 % of control.

In the case of COc1cccc(CCNC(=O)CC(=O)O)c1OC, the T/C [1] was 100 % of control, the T/C [2] was 105 % of control and the T/C [3] was 100 % of control.

COc1ccc(NCCN(C)C)c2c(=O)c3ccccc3sc12 was tested, and the T/C [4] was 97 % of control, the T/C [5] was 101 % of control and the T/C [6] was 108 % of control.

For CC(=O)[C@H]1CC[C@H]2[C@@H]3C[C@H](F)C4=CC(=O)CC[C@]4(C)[C@H]3C(=O)C[C@]12C, the T/C [4] was 112 % of control, the T/C [5] was 104 % of control and the T/C [6] was 116 % of control. For the same molecule, the T/C [2] was 100 % of control and the T/C [3] was 111 % of control.

N=c1ccc2nc3ccc(N)cc3sc-2c1 was tested, and the T/C [7] was 100 % of control and the T/C [8] was 109 % of control.

With CCN(CC)Cc1cc(Nc2c3ccccc3nc3cc(Cl)ccc23)ccc1O the T/C (dose: 12.5 mg/kg/injection, schedule: Q01DX009 (ip), vehicle: saline) was 100 % of control, the T/C (dose: 12.5 mg/kg/injection, schedule: Q04DX003 (ip), vehicle: saline sonified) was 104 % of control and the T/C [9] was 100 % of control. For the same molecule, the T/C (dose: 25.0 mg/kg/injection, schedule: Q04DX003 (ip), vehicle: saline sonified) was 100 % of control and the T/C [10] was 104 % of control.

With O=[As]O the T/C (dose: 2.0 mg/kg/injection, schedule: Q01DX009 (ip), vehicle: saline) was 115 % of control, the T/C (dose: 4.0 mg/kg/injection, schedule: Q01DX009 (ip), vehicle: saline) was 123 % of control and the T/C (dose: 8.0 mg/kg/injection, schedule: Q01DX009 (ip), vehicle: saline) was 150 % of control.

O/N=C\c1c(O)ccc2ccccc12 was tested, and the T/C [11] was 106 % of control, the T/C [12] was 105 % of control and the T/C (dose: 400.0 mg/kg/injection, schedule: Q01DX001 (ip), vehicle: saline with Tween-80) was 106 % of control.

In the case of CCCCCC(C1=NC(C)(C)CC(C)O1)c1ccccc1 (stereo not drawn), the T/C [10] was 100 % of control, the T/C (dose: 100.0 mg/kg/injection, schedule: Q04DX003 (ip), vehicle: saline sonified) was 100 % of control and the T/C (dose: 200.0 mg/kg/injection, schedule: Q04DX003 (ip), vehicle: saline sonified) was 100 % of control.

In the case of O=C1OC(c2ccc(Cl)cc2)=N/C1=C\c1ccccc1, the T/C (dose: 100.0 mg/kg/injection, schedule: Q01DX001 (ip), vehicle: Klucel (hydroxypropylcellulose) (HPC)) was 95 % of control, the T/C (dose: 100.0 mg/kg/injection, schedule: Q04DX003 (ip), vehicle: Klucel (hydroxypropylcellulose) (HPC)) was 86 % of control and the T/C (dose: 200.0 mg/kg/injection, schedule: Q01DX001 (ip), vehicle: Klucel (hydroxypropylcellulose) (HPC)) was 95 % of control. For the same molecule, the T/C (dose: 200.0 mg/kg/injection, schedule: Q04DX003 (ip), vehicle: Klucel (hydroxypropylcellulose) (HPC)) was 90 % of control, the T/C (dose: 400.0 mg/kg/injection, schedule: Q01DX001 (ip), vehicle: Klucel (hydroxypropylcellulose) (HPC)) was 100 % of control and the T/C (dose: 400.0 mg/kg/injection, schedule: Q04DX003 (ip), vehicle: Klucel (hydroxypropylcellulose) (HPC)) was 95 % of control.

With CC(=N\[O-])/C(C)=N/O.CC(=N\[O-])/C(C)=N/O.[Cl-].[Cl-].[Rh+3].c1ccncc1 the T/C (dose: 75.0 mg/kg/injection, schedule: Q01DX009 (ip), vehicle: water) was 110 % of control and the T/C (dose: 150.0 mg/kg/injection, schedule: Q01DX009 (ip), vehicle: water) was 110 % of control.

With [O-][n+]1c(-c2ccccc2)cn2ccccc21 the T/C [11] was 105 % of control and the T/C [12] was 98 % of control.

In the case of ClC1=NC(Cl)C(Cl)=N/C1=N\c1ncn[nH]1 (stereo not drawn), the T/C [13] was 110 % of control, the T/C (dose: 22.0 mg/kg/injection, schedule: Q04DX003 (ip), vehicle: saline with Tween-80) was 113 % of control and the T/C [14] was 118 % of control. The T/C (dose: 75.0 mg/kg/injection, schedule: Q04DX003 (ip), vehicle: saline with Tween-80) was 90 % of control.

CC(=O)N1C(=O)NC(=O)C1(C)c1ccc(Cl)s1 (stereo not drawn) was tested, and the T/C [4] was 92 % of control, the T/C [5] was 97 % of control and the T/C [1] was 100 % of control. For the same molecule, the T/C [6] was 113 % of control, the T/C [2] was 100 % of control and the T/C [15] was 106 % of control.

For BrCC[N+]12CC[N+](CCBr)(CC1)C2, the T/C [16] was 112 % of control, the T/C [17] was 105 % of control and the T/C (dose: 25.0 mg/kg/injection, schedule: Q04DX003 (ip), vehicle: water) was 110 % of control. For the same molecule, the T/C (dose: 50.0 mg/kg/injection, schedule: Q04DX003 (ip), vehicle: water) was 116 % of control and the T/C (dose: 400.0 mg/kg/injection, schedule: Q04DX003 (ip), vehicle: water) was 172 % of control.

In the case of Cc1ccc(CC2NC(=O)NC2=O)cc1 (stereo not drawn), the T/C [13] was 104 % of control, the T/C [16] was 88 % of control and 99 % of control and the T/C [17] was 90 % of control and 98 % of control. For the same molecule, the T/C [4] was 98 % of control and 120 % of control, the T/C [14] was 122 % of control and the T/C [5] was 87 % of control and 118 % of control. For the same molecule, the T/C [1] was 122 % of control, the T/C [6] was 111 % of control and the T/C [2] was 105 % of control. The T/C [15] was 96 % of control and the T/C [3] was 105 % of control.

In the case of Nc1cc2nnc(-c3ccccc3)c(-c3ccccc3)n2n1, the T/C (dose: 100.0 mg/kg/injection, schedule: Q04DX002 (ip), vehicle: saline with Tween-80) was 89 % of control and the T/C (dose: 400.0 mg/kg/injection, schedule: Q04DX002 (ip), vehicle: saline with Tween-80) was 86 % of control.

C1=C(c2ccccc2)CS1 was tested, and the T/C (dose: 25.0 mg/kg/injection, schedule: Q01DX001 (ip), vehicle: saline with Tween-80) was 104 % of control and the T/C (dose: 50.0 mg/kg/injection, schedule: Q01DX001 (ip), vehicle: saline with Tween-80) was 101 % of control.

Cc1ccc(NC2=CC(=O)C(=O)C=C2Nc2ccc(C)cc2)cc1 was tested, and the T/C (dose: 15.0 mg/kg/injection, schedule: Q01DX009 (ip), vehicle: saline with Tween-80) was 88 % of control, the T/C (dose: 30.0 mg/kg/injection, schedule: Q01DX009 (ip), vehicle: saline with Tween-80) was 88 % of control and the T/C (dose: 60.0 mg/kg/injection, schedule: Q01DX009 (ip), vehicle: saline with Tween-80) was 100 % of control.

With CC1C(=O)CCC2(C)CCC(C)(C)CC12 (stereo not drawn) the T/C [1] was 109 % of control, the T/C [2] was 109 % of control and the T/C [3] was 95 % of control.

With O=C(c1cc(Cl)cc(Cl)c1)N1CC1 the T/C [9] was 106 % of control, the T/C [7] was 100 % of control and the T/C (dose: 50.0 mg/kg/injection, schedule: Q01DX009 (ip), vehicle: saline) was 113 % of control. The T/C [8] was 100 % of control, the T/C (dose: 100.0 mg/kg/injection, schedule: Q01DX009 (ip), vehicle: saline) was 103 % of control and the T/C (dose: 100.0 mg/kg/injection, schedule: Q04DX003 (ip), vehicle: saline) was 98 % of control. For the same molecule, the T/C (dose: 200.0 mg/kg/injection, schedule: Q01DX009 (ip), vehicle: saline) was 113 % of control, the T/C (dose: 200.0 mg/kg/injection, schedule: Q04DX003 (ip), vehicle: saline) was 114 % of control and the T/C (dose: 400.0 mg/kg/injection, schedule: Q01DX009 (ip), vehicle: saline) was 113 % of control. For the same molecule, the T/C (dose: 400.0 mg/kg/injection, schedule: Q04DX003 (ip), vehicle: saline) was 106 % of control.

In the case of Oc1ccc(Cl)cc1Br, the T/C [17] was 110 % of control, the T/C [4] was 115 % of control and the T/C [5] was 110 % of control.
